# Test results as given in patent publication US20220119354A1, “DIAMINO-SUBSTITUTED PYRIDINES AND PYRIMIDINES AS HERBICIDES” (FMC Corporation, priority 2019, published 2022).
# Key:
# Type in all cases: in vivo
# [1] = test system: barnyardgrass (Echinochloa crus-galli); test: Test A preemergence, barnyardgrass; details: 0 to 100 scale
# Description: (§1) Seeds of plant species selected from barnyardgrass (Echinochloa crus-galli), kochia (Kochia scoparia), ragweed (common ragweed, Ambrosia elatior), ryegrass, Italian (Lolium multiflorum), foxtail, giant (Setaria faberii), foxtail, green (Setaria viridis), and pigweed (Amaranthus retroflexus) were planted into a blend of loam soil and sand and treated preemergence with a directed soil spray using test chemicals formulated in a non-phytotoxic solvent mixture which included a surfactant.
# (§2) At the same time, plants selected from these weed species and also wheat (Triticum aestivum), corn (Zea mays), blackgrass (Alopecurus myosuroides), and galium (catchweed bedstraw, Galium aparine) were planted in pots containing the same blend of loam soil and sand and treated with postemergence applications of test chemicals formulated in the same manner. Plants ranged in height from 2 to 10 cm and were in the one- to two-leaf stage for the postemergence treatment. Treated plants and untreated controls were maintained in a greenhouse for approximately 10 d, after which time all treated plants were compared to untreated controls and visually evaluated for injury. Plant response ratings, summarized in Table A, are based on a 0 to 100 scale where 0 is no effect and 100 is complete control. A dash (-) response means no test result.
# kochia (Kochia scoparia) [2] = test: Test A preemergence, kochia; details: 0 to 100 scale
# Description: as §1, §2
# [3] = test system: ryegrass, Italian (Lolium multiflorum); test: Test A preemergence, Italian ryegrass; details: 0 to 100 scale
# Description: as §1, §2
# [4] = test system: foxtail, giant (Setaria faberii); test: Test A preemergence, giant foxtail; details: 0 to 100 scale
# Description: as §1, §2
# [5] = test system: pigweed (Amaranthus retroflexus); test: Test A preemergence, pigweed; details: 0 to 100 scale
# Description: as §1, §2
# [6] = test system: barnyardgrass (Echinochloa crus-galli); test: Test A postemergence, barnyardgrass; details: 0 to 100 scale
# Description: as §1, §2
# kochia (Kochia scoparia) [7] = test: Test A postemergence, kochia; details: 0 to 100 scale
# Description: as §1, §2
# [8] = test system: ragweed (common ragweed, Ambrosia elatior); test: Test A postemergence, ragweed; details: 0 to 100 scale
# Description: as §1, §2
# [9] = test system: ryegrass, Italian (Lolium multiflorum); test: Test A postemergence, Italian ryegrass; details: 0 to 100 scale
# Description: as §1, §2
# [10] = test system: foxtail, giant (Setaria faberii); test: Test A postemergence, giant foxtail; details: 0 to 100 scale
# Description: as §1, §2
# [11] = test system: pigweed (Amaranthus retroflexus); test: Test A postemergence, pigweed; details: 0 to 100 scale
# Description: as §1, §2
# [12] = test system: wheat (Triticum aestivum); test: Test A postemergence, wheat; details: 0 to 100 scale
# Description: as §1, §2
# corn (Zea mays) = test: Test A postemergence, corn; details: 0 to 100 scale
# Description: as §1, §2
# [13] = test system: blackgrass (Alopecurus myosuroides); test: Test A postemergence, blackgrass; details: 0 to 100 scale
# Description: as §1, §2
# [14] = test system: galium (catchweed bedstraw, Galium aparine); test: Test A postemergence, galium; details: 0 to 100 scale
# Description: as §1, §2
# rice (Oryza sativa) = test: Test B flooded paddy test, rice; details: Flood, 250 g ai/ha, applied to paddy water, 2-leaf stage, visual evaluation after 13 to 15 d
# Protocol: (§3) Plant species in the flooded paddy test selected from rice (Oryza sativa), sedge, umbrella (small-flower umbrella sedge, Cyperus difformis), ducksalad (Heteranthera limosa), and barnyardgrass (Echinochloa crus-galli) were grown to the 2-leaf stage for testing. At the time of treatment, test pots were flooded to 3 cm above the soil surface, treated by application of test compounds directly to the paddy water, and then maintained at that water depth for the duration of the test. Treated plants and controls were maintained in a greenhouse for 13 to 15 d, after which time all species were compared to controls and visually evaluated. Plant response ratings, summarized in Table B, are based on a scale of 0 to 100 where 0 is no effect and 100 is complete control. A dash (-) response means no test result.
# [15] = test system: sedge, umbrella (small-flower umbrella sedge, Cyperus difformis); test: Test B flooded paddy test, umbrella sedge; details: Flood, 250 g ai/ha, applied to paddy water, 2-leaf stage, visual evaluation after 13 to 15 d
# Protocol: as §3
# [16] = test system: ducksalad (Heteranthera limosa); test: Test B flooded paddy test, ducksalad; details: Flood, 250 g ai/ha, applied to paddy water, 2-leaf stage, visual evaluation after 13 to 15 d
# Protocol: as §3
# [17] = test system: barnyardgrass (Echinochloa crus-galli); test: Test B flooded paddy test, barnyardgrass; details: Flood, 250 g ai/ha, applied to paddy water, 2-leaf stage, visual evaluation after 13 to 15 d
# Protocol: as §3
# [18] = 125 g ai/ha, 0 is no effect, 100 is complete control
Structure (SMILES),"Plant response rating, Barnyardgrass ([1]; 500 g ai/ha)","Plant response rating, Kochia (kochia (Kochia scoparia) [2]; 500 g ai/ha)","Plant response rating, Foxtail, Giant ([4]; 500 g ai/ha)","Plant response rating, Pigweed ([5]; 500 g ai/ha)","Plant response rating, Barnyardgrass ([6]; 125 g ai/ha)","Plant response rating, Barnyardgrass ([6]; 500 g ai/ha)","Plant response rating, Kochia (kochia (Kochia scoparia) [7]; 125 g ai/ha)","Plant response rating, Kochia (kochia (Kochia scoparia) [7]; 500 g ai/ha)","Plant response rating, Ragweed ([8]; 125 g ai/ha)","Plant response rating, Ragweed ([8]; 500 g ai/ha)","Plant response rating, Ryegrass, Italian ([9]; 125 g ai/ha)","Plant response rating, Ryegrass, Italian ([9]; 500 g ai/ha)","Plant response rating, Foxtail, Giant ([10]; 125 g ai/ha)","Plant response rating, Foxtail, Giant ([10]; 500 g ai/ha)","Plant response rating, Pigweed ([11]; 125 g ai/ha)","Plant response rating, Pigweed ([11]; 500 g ai/ha)","Plant response rating, Wheat ([12]; 125 g ai/ha)","Plant response rating, Wheat ([12]; 500 g ai/ha)","Plant response rating, Corn (corn (Zea mays); 125 g ai/ha)","Plant response rating, Corn (corn (Zea mays); 500 g ai/ha)",also measured
CC(Nc1ncc(C(F)(F)F)c(N)n1)c1cc2ccccc2s1 (racemic) [Compound 16],100,100,100,100,30,60,70,80,0,80,0,40,20,90,90,100,0,0,0,20,"Plant response rating, Barnyardgrass ([1]; 125 g ai/ha): 70; Plant response rating, Kochia (kochia (Kochia scoparia) [2]; 125 g ai/ha): 70; Plant response rating, Ryegrass, Italian ([3]; 125 g ai/ha): 0; Plant response rating, Ryegrass, Italian ([3]; 500 g ai/ha): 10; Plant response rating, Foxtail, Giant ([4]; 125 g ai/ha): 50; Plant response rating, Pigweed ([5]; 125 g ai/ha): 90; Plant response rating, Blackgrass ([13]; 125 g ai/ha): 10; Plant response rating, Blackgrass ([13]; 500 g ai/ha): 30; Plant response rating, Galium ([14]; 125 g ai/ha): 60; Plant response rating, Galium ([14]; 500 g ai/ha): 80; Plant response rating, Rice (0 to 100 scale, 0 is no effect, 100 is complete control) (rice (Oryza sativa)): 0; Plant response rating, Sedge, Umbrella (0 to 100 scale, 0 is no effect, 100 is complete control) [15]: 95; Plant response rating, Ducksalad (0 to 100 scale, 0 is no effect, 100 is complete control) [16]: 15; Plant response rating, Barnyardgrass (0 to 100 scale, 0 is no effect, 100 is complete control) [17]: 50"
Cc1cc(OCC(C)Nc2ncc(C(F)(F)F)c(N)n2)ccc1F (stereo not drawn) [Compound 38],90,60,90,90,0,0,0,30,0,0,0,0,0,0,20,80,0,0,0,0,"Barnyardgrass plant response rating [1, 18]: 30; Kochia plant response rating (kochia (Kochia scoparia) [2]; [18]): 0; Foxtail, Giant plant response rating [4, 18]: 20; Pigweed plant response rating [5, 18]: 50; Plant response rating, Blackgrass ([13]; 125 g ai/ha): 0; Plant response rating, Blackgrass ([13]; 500 g ai/ha): 0; Plant response rating, Galium ([14]; 125 g ai/ha): 30; Plant response rating, Galium ([14]; 500 g ai/ha): 70; Plant response rating, Rice (0 to 100 scale, 0 is no effect, 100 is complete control) (rice (Oryza sativa)): 0; Plant response rating, Sedge, Umbrella (0 to 100 scale, 0 is no effect, 100 is complete control) [15]: 0; Plant response rating, Ducksalad (0 to 100 scale, 0 is no effect, 100 is complete control) [16]: 0; Plant response rating, Barnyardgrass (0 to 100 scale, 0 is no effect, 100 is complete control) [17]: 0"
